Values joined by “and” are separate entries in the source; they are usually repeats but may differ in a detail not shown here. Identical values can stand only once. “Also recorded” adds a separate entry of the source.
How the values were obtained:
CD4 positive T cells = assay: Kinetics of IL15Ra surface expression in T cells with TMP (Table 92); assay type: cell-based, human; conditions: for Stabilization ratio: TMP vs DMSO;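 as to all read-outs here: CD4 positive T cells, CD3/CD28 bead-activated and lentivirally transduced with DD-IL15-IL15Ra, read for surface IL15Ra positivity, stabilization ratio is fold change of ligand over DMSO, untransduced cells as negative control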
HEK-293T cells = assay: IL15 western blot of DD IL15-IL15Ra, transient transfection; assay type: cell-based, human; conditions: 10 μM Trimethoprim or 1 μM Shield-1, 24 h
Experimental: To test ligand dependent IL15-IL15Ra production, 1 million HEK-293T cells were plated in a 6-well plate in growth media containing DMEM and 10 FBS and incubated overnight at 37° C., 5% CO2. […] Cells were harvested and IL15 levels are analyzed via western blotting using human IL15 antibody (Abcam, Cambridge, UK).

primary T cells = assay: Regulated expression of IL15-IL15Ra in T cells (FACS); assay type: cell-based, human
Experimental: The transduction was carried out at two different lentivirus concentrations, 5 μl and 20 μl for the DD regulated construct using Lentiboost™ (Sirion Biotech, Germany). […] Samples were analyzed with an anti IL15Ra antibody using FACS. Additional controls samples such as cells treated with Lentiboost only, untransduced cells treated with DMSO or TMP, and Isotype controls were included in the FACS analysis. […] In both figures, DMSO-A and TMP-A represent cells treated with 5 μl of lentivirus and DMSO-B and TMP-B represent cells treated with 20 μl of lentivirus. […] Additionally, very low levels of IL15Ra were detected in the DMSO treated samples under the same conditions as well as in the untransduced T cells.
IL15Ra expression was measured using FACS.

HCT116 tumors = assay: HCT116 OT-IL15-009 tumors in mice, IL15-IL15Ra western blot and TMP levels; assay type: in vivo, BALB/c nude mice; conditions: TMP 100 then 300 mg/kg orally twice a day, 17 days
HCT116 cells [1] = assay: IL15-IL15Ra in vivo tumor study (xenograft); conditions: 5 million HCT116 cells s.c., nude mice
Experimental: The functional capability of IL15-IL15Ra constructs was tested in vivo in xenograft assays. The experiment was designed to test the hypothesis that pulsatile expression of IL15-IL15Ra fusion proteins from cancer cell lines such as HCT116, in mice may stimulate the mouse's NK cells to attack the tumor leading to tumor growth inhibition. […] Tumors were allowed to develop over a period of 22 days.
Mice injected with OT-IL15-009 expressing cells were left untreated, or treated with vehicle control or TMP.

HCT116 cells [2] = assay: IL15 shedding into media, ELISA and MSD; assay type: cell-based, human; conditions: TMP doses
Experimental: To test if IL15 is shed into the media, supernatant from HCT116 cells expressing IL15-IL15Ra fusion constructs was subject to immunoassays such as ELISA and MSD (Rockville, Maryland). In FIG. 54B, OD indicates optical density. IL15 was measured in the media of cells expressing IL15-IL15Ra fusion constructs.

HCT116 cells [3] = assay: IL15Ra immunoblot, TMP dose response; assay type: cell-based, human; conditions: TMP 10, 33, 100 μM, 24 h
Source text: Cell lysates were obtained and immunoblotted with anti IL15Ra antibody.
Cell lysates were immunoblotted with anti IL15Ra antibody.

HEK293T cells = assay: Surface IL15 and IL15Ra FACS, transient transfection; assay type: cell-based, human; conditions: Shield-1 or Trimethoprim
Experimental: 48 hours after transfection, cells were analyzed using FACS.

HCT-116 cells [4] = assay: Time course of IL15-IL15Ra surface expression with TMP; assay type: cell-based, human; conditions: 10 μM TMP
Experimental: The time course of ligand dependent stabilization of IL15-IL15Ra fusion constructs was measured in HCT-116 cells.

HCT-116 cells [5] = assay: TMP dose response of IL15-IL15Ra surface expression (FACS); assay type: cell-based, human; conditions: 24 h
Source text: Surface expression of IL15-IL15Ra fusion constructs was quantified by FACS using IL15Ra-PE antibody.
Surface expression of IL15-IL15Ra fusion construct was quantified by FACS using IL15Ra-PE antibody.

In the case of “OT-IL15-009: IL15-IL15Ra fusion with ecDHFR (R12Y, Y100I) DD”, the “Percentage of IL15Ra positive cells” value (CD4 positive T cells; 100 μM TMP) is reported as 16.6% and 16%, the “Proportion of CD4 T cells with surface IL15Ra over time (FIG. 48)” value (CD4 positive T cells; 100 μM TMP, 1-24 h) is reported as “from 4 hrs after TMP treatment, the cells transduced with the OT-IL15-009 construct and treated with TMP exhibited an increased proportion of cells with surface expression of IL15Ra” and the “percentage of IL15Ra positive CD4 positive T cells, TMP” value (from here on “percentage … TMP”) (CD4 positive T cells; 100 μM TMP, 1 hours) is reported as 1.86. For the same substance, the “percentage … TMP” value (CD4 positive T cells; 100 μM TMP, 2 hours) was 2.27, the “percentage … TMP” value (CD4 positive T cells; 100 μM TMP, 4 hours) was 4.01 and the “percentage … TMP” value (CD4 positive T cells; 100 μM TMP, 6 hours) was 5.85. The “percentage … TMP” value (CD4 positive T cells; 100 μM TMP, 8 hours) was 7.09, the “percentage … TMP” value (CD4 positive T cells; 100 μM TMP, 15 hours) was 12.53 and the “percentage … TMP” value (CD4 positive T cells; 100 μM TMP, 22 hours) was 14.57. The “percentage … TMP” value (CD4 positive T cells; 100 μM TMP, 24 hours) was 13.75, the “percentage of IL15Ra positive CD4 positive T cells, DMSO” value (shortened to “percentage … DMSO”) (CD4 positive T cells; 1 hours) was 2.03 and the “percentage … DMSO” value (CD4 positive T cells; 2 hours) was 2.12. For the same substance, the “percentage … DMSO” value (CD4 positive T cells; 4 hours) was 1.99, the “percentage … DMSO” value (CD4 positive T cells; 6 hours) was 1.87 and the “percentage … DMSO” value (CD4 positive T cells; 8 hours) was 2.14. The “percentage … DMSO” value (CD4 positive T cells; 15 hours) was 2.46, the “percentage … DMSO” value (CD4 positive T cells; 22 hours) was 2.78 and the “percentage … DMSO” value (CD4 positive T cells; 24 hours) was 2.07. For the same substance, the “Stabilization ratio” value (CD4 positive T cells; 1 hours) was 0.92, the “Stabilization ratio” value (CD4 positive T cells; 4 hours) was 2.02 and the “Stabilization ratio” value (CD4 positive T cells; 6 hours) was 3.13. For the same substance, the “Stabilization ratio” value (CD4 positive T cells; 8 hours) was 3.31, the “Stabilization ratio” value (CD4 positive T cells; 15 hours) was 5.09 and the “Stabilization ratio” value (CD4 positive T cells; 22 hours) was 5.24. The “Stabilization ratio” value (CD4 positive T cells; 24 hours) was 6.64, the “Percentage of IL15Ra positive cells” value (CD4 positive T cells; untreated T cells) was 1.68% and 1% and the “IL15 stabilization by western blot (FIG. 24A)” value (HEK-293T cells) was “strong ligand (Trimethoprim) dependent stabilization of IL15”. The “IL15Ra expression in T cells (FIG. 35)” value (primary T cells; 10 μM TMP 24/48 h or 0.156-160 μM 24 h) was “increase in the expression of IL15Ra in T cells with both doses of lentivirus used; also recorded: An increase in the percentage of IL15Ra cells with increasing doses of TMP was observed”, the “% Positive cells, IL15Ra positive” value (primary T cells; T cells, surface expression) was 15.8% and the “% Positive cells, IL15 and IL15Ra positive” value (primary T cells; T cells, surface expression) was 0.51%. The “% Positive cells, IL15 positive” value (primary T cells; T cells, surface expression) was 0.60%, the “IL15-IL15Ra in tumors by western blot (FIG. 49)” value (HCT116 tumors) was “elevated levels of IL15-IL15Ra expression, compared to tumors treated with the vehicle” and the “Tumor growth (FIG. 55)” value (HCT116 cells [1]) was “mice treated with TMP had smaller tumors than mice of the other two groups”. For the same substance, the “IL15 levels in the media (FIG. 54B, 54C)” value (HCT116 cells [2]) was “TMP dose dependent increase in IL15 levels detected in the media”, the “IL15Ra expression by immunoblot (FIG. 26, 27, 54A)” value (HCT116 cells [3]) was “virtually undetectable in the absence of TMP, and addition of increasing doses of TMP resulted in an increase in IL15Ra levels” and the “Surface expression of IL15 and IL15Ra (FIG. 24B, 24C)” value (HEK293T cells) was “strong ligand (Trimethoprim) dependent surface expression of IL15 and IL15Ra”. For the same substance, the “MFI, surface IL15-IL15Ra” value (HCT-116 cells [4]; 0 h) was 4004, the “MFI, surface IL15-IL15Ra” value (HCT-116 cells [4]; 12 h) was 7054 and the “MFI, surface IL15-IL15Ra” value (HCT-116 cells [4]; 16 h) was 9390. The “MFI, surface IL15-IL15Ra” value (HCT-116 cells [4]; 24 h) was 14056, the “MFI, surface IL15-IL15Ra” value (HCT-116 cells [4]; 48 h) was 28644 and the “MFI, surface IL15-IL15Ra” value (HCT-116 cells [4]; 72 h) was 35303. For the same substance, the “Median Fluorescence Intensity, surface IL15-IL15Ra” value (“Median Fluorescence Intensity” for short) (HCT-116 cells [5]; DMSO) was 1260, the “Median Fluorescence Intensity” value (HCT-116 cells [5]; TMP 0.01 μM) was 1384 and the “Median Fluorescence Intensity” value (HCT-116 cells [5]; TMP 0.02 μM) was 1492. For the same substance, the “Median Fluorescence Intensity” value (HCT-116 cells [5]; TMP 0.05 μM) was 1947, the “Median Fluorescence Intensity” value (HCT-116 cells [5]; TMP 0.14 μM) was 2741 and the “Median Fluorescence Intensity” value (HCT-116 cells [5]; TMP 0.41 μM) was 3360. For the same substance, the “Median Fluorescence Intensity” value (HCT-116 cells [5]; TMP 3.7 μM) was 4265, the “Median Fluorescence Intensity” value (HCT-116 cells [5]; TMP 11.11 μM) was 4267 and the “Median Fluorescence Intensity” value (HCT-116 cells [5]; TMP 33.33 μM) was 4485. The “Median Fluorescence Intensity” value (HCT-116 cells [5]; TMP 100 μM) was 4633 and the “Median Fluorescence Intensity” value (HCT-116 cells [5]; TMP […]) was 4014.
